For orientation: IC50 means the concentration needed to halve the response being measured. A lower IC50 goes with greater potency. The inhibition is the percentage by which the read-out fell short of the control. High values mean a response far below the control, low ones a response near the control.

In one assay the target is T1, PDE1A (Homo sapiens, UniProt P54750). Nature of the assay: PDE1A dose response, Cyclic Nucleotide Phosphodiesterase Assay Kit from Biomol (colorimetric). The assay is classed as biochemical. As to conditions: purified PDE1A enzyme, 100 μM cAMP. In a few lines:
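Purified PDE1A hydrolysed 100 μM cAMP with 5′-nucleotidase in Tris 20 mM pH 7.4 with calmodulin, Ca2+, Mg2+, 45 min at 37° C. Released phosphate read by malachite-green absorbance at 615 nm. Duplicate 8-point 1/3 dilutions from 20 μM, 1% DMSO; 10 μM vardenafil defined 100% inhibition.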
`Cc1nn(C2CCCCC2)c2nc(C3CCCN(C(=O)c4cccc5c4OC(F)(F)O5)C3)[nH]c(=O)c12` (stereo not drawn) [Example 58, 1-cyclohexyl-6-(1-(2,2-difluorobenzo[d][1,3]dioxole-4-carbonyl)piperidin-3-yl)-3-methyl-1H-pyrazolo[3,4-d]pyrimidin-4(5H)-one] gave an IC50 of 101 to 500 nM.

Consider `Cc1nn(-c2ccc(F)cc2)c2nc(C3CN(C(=O)NC4CCCCC4)C3)[nH]c(=O)c12` [Example 50, N-cyclohexyl-3-(1-(4-fluorophenyl)-3-methyl-4-oxo-4,5-dihydro-1H-pyrazolo[3,4-d]pyrimidin-6-yl)azetidine-1-carboxamide], for which the IC50 fell in the range of 101 to 500 nM.

In the case of `CN(C)c1ccc(C(=O)N2CCCC(c3nc4c(cnn4C4CCCCC4)c(=O)[nH]3)C2)cc1` (stereo not drawn) [Example 60, 1-cyclohexyl-6-(1-(4-(dimethylamino)benzoyl)piperidin-3-yl)-1H-pyrazolo[3,4-d]pyrimidin-4(5H)-one], the IC50 was 101 to 500 nM.

Turning to `O=C(N1CCCCC1)N1CC(c2nc3c(cnn3C3CCCCC3)c(=O)[nH]2)C1` [Example 83, 1-cyclohexyl-6-(1-(piperidine-1-carbonyl)azetidin-3-yl)-1H-pyrazolo[3,4-d]pyrimidin-4(5H)-one], the IC50 fell in the range of 501 to 1000 nM.

Molecule `COc1cccc(C(=O)N2CCCC(c3nc4c(c(C)nn4-c4ccccc4)c(=O)[nH]3)C2)c1` (stereo not drawn) [Example 81, 6-(1-(3-methoxybenzoyl)piperidin-3-yl)-3-methyl-1-phenyl-1H-pyrazolo[3,4-d]pyrimidin-4(5H)-one] gave an IC50 of 501 to 1000 nM.

Molecule `O=C(NCCCN1CCOCC1)N1CC(c2nc3c(cnn3C3CCCCC3)c(=O)[nH]2)C1` [Example 88, 3-(1-cyclohexyl-4-oxo-4,5-dihydro-1H-pyrazolo[3,4-d]pyrimidin-6-yl)-N-(3-morpholinopropyl)azetidine-1-carboxamide] registered an IC50 of 501 to 1000 nM.

`O=c1[nH]c(C2CN(Cc3nc4ccccc4s3)C2)nc2c1cnn2C1CCCCC1` [Example 172, 6-(1-(Benzo[d]thiazol-2-ylmethyl)azetidin-3-yl)-1-cyclohexyl-1H-pyrazolo[3,4-d]pyrimidin-4(5H)-one]: the IC50 is 501 to 1000 nM.

In another assay the target is T1, PDE1A. Nature of the assay: PDE1A primary screening, cAMP dynamic HTRF kit from Cisbio. The class given is biochemical. As to conditions: 10 μM, control compounds of the primary screening, 100 nM cAMP. The text has this:
For the primary screening an assay using the cAMP dynamic HTRF® kit from Cisbio (catnr 62AM2PEB) is used. Its principle is based on HTRF® technology (Homogeneous Time-Resolved Fluorescence). The method is a competitive immunoassay between native cAMP and the cAMP labeled with XL665. The tracer binding is visualized by a monoclonal antibody against cAMP, labeled with Cryptate. The specific signal (i.e. energy transfer) is inversely proportional to the concentration of cAMP in the sample (see FIG. 1).
For the enzymatic reaction, a mixture is made of 20 μL with purified PDE1A enzyme, 100 nM cAMP and the compound (10 μM in a final concentration of 1% DMSO) in a black 384-plate. The reaction buffer is Tris 20 mM pH 7.4, 4 μg/mLl calmodulin, 3 mM MgCl2, 1.5 mM CaCl2, 0.2 mg/mL BSA and 0.001% Brij-35®. After an incubation of 30 minutes at room temperature, the reaction is stopped by the addition of 10 μL labelled cAMP-XL665 and 10 μL anti-cAMP-Cryptate. After 1 hour incubation at room temperature, the readout is performed on the Envision (excitation 360 nm; emission donor 615 nm; emission acceptor 665 nm).
PDE1A hydrolyses cAMP into 5′AMP; this low cAMP concentration will result in a high signal. A PDE1A inhibitor will result in a decrease of the signal. […]
(TR-FRET usually uses a lanthanide donor and a delayed reading to cut background.)
On to `CCCCOc1cc(CC2CNC(=O)N2)ccc1OC` (stereo not drawn) [Ro-20-1724], for which the inhibition is 0%.

Staying with this assay, now noted: control compounds of the primary screening, 100 nM cAMP.
In turn, `CCCOc1ccccc1-c1nc2nn[nH]c2c(=O)[nH]1` [Zaprinast] had an inhibition at 10 µM of about 50%.

(Values after patent US20090137549A1, “Novel compounds useful for the treatment of degenerative & inflamatory diseases” (priority 2006, published 2009).)
